Experimental findings from patent US10647713B2 (Nimbus Lakshmi, Inc., priority 2016, dated 2020) are described below.

The structures appear in SMILES notation. Bounds are passed on as bounds.

In this assay the target is human TYK2 (JH2domain-pseudokinase) (Homo sapiens (Human), UniProt P29597). Nature of the assay: TYK2 JH2 Domain Binding Assay (KINOMEscan, DiscoveRx). The note with it: 11-point dilution, duplicate. The procedure, abridged: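 Kd from duplicate 11-point 3-fold dilutions starting at 30,000 nM, fitted by Hill equation with slope fixed at −1. Compounds (final 0.9% DMSO) displace DNA-tagged HEK293-expressed TYK2 JH2 fusion (<0.1 nM) from ligand-coated beads over 1 h at room temperature; eluted kinase read by qPCR.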
human TYK2 (JH2domain-pseudokinase), sequence (P29597 556-888): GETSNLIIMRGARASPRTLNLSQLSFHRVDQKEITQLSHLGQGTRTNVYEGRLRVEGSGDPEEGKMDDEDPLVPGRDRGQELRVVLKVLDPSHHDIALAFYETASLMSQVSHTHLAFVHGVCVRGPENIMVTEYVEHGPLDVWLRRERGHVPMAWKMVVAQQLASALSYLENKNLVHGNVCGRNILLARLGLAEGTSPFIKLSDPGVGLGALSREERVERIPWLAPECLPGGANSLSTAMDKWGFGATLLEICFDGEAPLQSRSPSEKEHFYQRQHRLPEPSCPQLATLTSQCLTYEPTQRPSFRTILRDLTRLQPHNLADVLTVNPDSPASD
Take `Cc1nc2c(Nc3ccc(C4COCCO4)cc3S(C)(=O)=O)cc(NC(=O)C3CC3)nc2[nH]1` (stereo not drawn) [I-604, N-(7-((4-(1,4-dioxan-2-yl)-2-(methylsulfonyl)phenyl)amino)-2-methyl-3H-imidazo[4,5-b]pyridin-5-yl)cyclopropanecarboxamide]: the dissociation constant Kd (as a rule, the constant that tells how readily two partners part at equilibrium) lay within 0.1 to 0.5 nM.
As for `Cc1ncc(Nc2cc(Nc3ccc(C4CCC(C)(C)CO4)cc3S(C)(=O)=O)c3nc(C(F)F)[nH]c3n2)nc1C` (stereo not drawn) [I-605, 2-(difluoromethyl)-N5-(5,6-dimethylpyrazin-2-yl)-N7-(4-(5,5-dimethyltetrahydro-2H-pyran-2-yl)-2-(methylsulfonyl)phenyl)-3H-imidazo[4,5-b]pyridine-5,7-diamine], the figure is 0.1 to 0.5 nM; as for `COc1c(Nc2cc(Nc3cccc(C(F)(F)F)n3)nc3[nH]c(C)nc23)cccc1-c1cnn(C)n1` [I-606, N7-(2-methoxy-3-(2-methyl-2H-1,2,3-triazol-4-yl)phenyl)-2-methyl-N5-(6-(trifluoromethyl)pyridin-2-yl)-3H-imidazo[4,5-b]pyridine-5,7-diamine], 1 to 10 nM.
Take `CCOc1ccc(Nc2cc(Nc3ccc(F)cc3S(C)(=O)=O)c3nc(C(F)F)[nH]c3n2)nc1C#N` [I-607, 6-((2-(difluoromethyl)-7-((4-fluoro-2-(methylsulfonyl)phenyl)amino)-3H-imidazo[4,5-b]pyridin-5-yl)amino)-3-ethoxypicolinonitrile]: the Kd fell in the range of 0.1 to 0.5 nM.
As for `CCOc1ccc(Nc2cc(Nc3ccc(F)cc3S(C)(=O)=O)c3nc(C)[nH]c3n2)nc1C#N` [I-608, 3-ethoxy-6-((7-((4-fluoro-2-(methylsulfonyl)phenyl)amino)-2-methyl-3H-imidazo[4,5-b]pyridin-5-yl)amino)picolinonitrile], the figure is 0.1 to 0.5 nM; as for `Cc1nc2c(Nc3ccc([C@H]4CCC(C)(C)CO4)cc3S(C)(=O)=O)cc(Nc3cnc(C)c(C)n3)nc2[nH]1` [I-609, (R)—N5-(5,6-dimethylpyrazin-2-yl)-N7-(4-(5,5-dimethyltetrahydro-2H-pyran-2-yl)-2-(methylsulfonyl)phenyl)-2-methyl-3H-imidazo[4,5-b]pyridine-5,7-diamine], 0.1 to 0.5 nM.
As to `Cc1nc2c(Nc3ccc([C@@H]4CCC(C)(C)CO4)cc3S(C)(=O)=O)cc(Nc3cnc(C)c(C)n3)nc2[nH]1` [I-610, (S)—N5-(5,6-dimethylpyrazin-2-yl)-N7-(4-(5,5-dimethyltetrahydro-2H-pyran-2-yl)-2-(methylsulfonyl)phenyl)-2-methyl-3H-imidazo[4,5-b]pyridine-5,7-diamine], the dissociation constant (Kd) is 1 to 10 nM.
The figure for `Cc1nc2c(Nc3ccc([C@@H]4COCCO4)cc3S(C)(=O)=O)cc(NC(=O)C3CC3)nc2[nH]1` [I-611, (R)—N-(7-((4-(1,4-dioxan-2-yl)-2-(methylsulfonyl)phenyl)amino)-2-methyl-3H-imidazo[4,5-b]pyridin-5-yl)cyclopropanecarboxamide] is 0.1 to 0.5 nM; for `Cc1nc2c(Nc3ccc([C@H]4COCCO4)cc3S(C)(=O)=O)cc(NC(=O)C3CC3)nc2[nH]1` [I-612, (S)—N-(7-((4-(1,4-dioxan-2-yl)-2-(methylsulfonyl)phenyl)amino)-2-methyl-3H-imidazo[4,5-b]pyridin-5-yl)cyclopropanecarboxamide] it is 0.1 to 0.5 nM; for `Cc1nc2c(Nc3ccc([C@H]4CCC(F)(F)CO4)cc3S(C)(=O)=O)cc(NC(=O)C3CC3)nc2[nH]1` [I-615, (R)—N-(7-((4-(5,5-difluorotetrahydro-2H-pyran-2-yl)-2-(methylsulfonyl)phenyl)amino)-2-methyl-3H-imidazo[4,5-b]pyridin-5-yl)cyclopropanecarboxamide] it is 0.5 to 1 nM.
The figure for `Cc1nc2c(Nc3ccc([C@@H]4CCC(F)(F)CO4)cc3S(C)(=O)=O)cc(NC(=O)C3CC3)nc2[nH]1` [I-616, (S)—N-(7-((4-(5,5-difluorotetrahydro-2H-pyran-2-yl)-2-(methylsulfonyl)phenyl)amino)-2-methyl-3H-imidazo[4,5-b]pyridin-5-yl)cyclopropanecarboxamide] is 0.1 to 0.5 nM; for `CS(=O)(=O)c1ccccc1Nc1cc(Nc2ccc3c(n2)C(F)(F)CC3)nc2[nH]c(C(F)F)nc12` [I-617, N5-(7,7-difluoro-6,7-dihydro-5H-cyclopenta[b]pyridin-2-yl)-2-(difluoromethyl)-N7-(2-(methylsulfonyl)phenyl)-3H-imidazo[4,5-b]pyridine-5,7-diamine] it is 0.1 to 0.5 nM; for `Cc1nc2c(Nc3ccccc3S(C)(=O)=O)cc(Nc3ccc4c(n3)C(F)(F)CC4)nc2[nH]1` [I-618, N5-(7,7-difluoro-6,7-dihydro-5H-cyclopenta[b]pyridin-2-yl)-2-methyl-N7-(2-(methylsulfonyl)phenyl)-3H-imidazo[4,5-b]pyridine-5,7-diamine] it is < 0.1 nM.
Turning to `COCCOc1ccc(Nc2cc(Nc3ccccc3S(C)(=O)=O)c3nc(C(F)F)[nH]c3n2)nc1C#N` [I-619, 6-((2-(difluoromethyl)-7-((2-(methylsulfonyl)phenyl)amino)-3H-imidazo[4,5-b]pyridin-5-yl)amino)-3-(2-methoxyethoxy)picolinonitrile], the Kd was < 0.1 nM.
The figure for `COCCOc1ccc(Nc2cc(Nc3ccccc3S(C)(=O)=O)c3nc(C)[nH]c3n2)nc1C#N` [I-620, 3-(2-methoxyethoxy)-6-((2-methyl-7-((2-(methylsulfonyl)phenyl)amino)-3H-imidazo[4,5-b]pyridin-5-yl)amino)picolinonitrile] is < 0.1 nM; for `COCCOc1ccc(Nc2cc(Nc3ccc(F)cc3S(C)(=O)=O)c3nc(C(F)F)[nH]c3n2)nc1C#N` [I-621, 6-((2-(difluoromethyl)-7-((4-fluoro-2-(methylsulfonyl)phenyl)amino)-3H-imidazo[4,5-b]pyridin-5-yl)amino)-3-(2-methoxyethoxy)picolinonitrile] it is 0.1 to 0.5 nM; for `COCCOc1ccc(Nc2cc(Nc3ccc(F)cc3S(C)(=O)=O)c3nc(C)[nH]c3n2)nc1C#N` [I-622, 6-((7-((4-fluoro-2-(methylsulfonyl)phenyl)amino)-2-methyl-3H-imidazo[4,5-b]pyridin-5-yl)amino)-3-(2-methoxyethoxy)picolinonitrile] it is < 0.1 nM.
The figure for `CS(=O)(=O)c1ccccc1Nc1cc(Nc2ccc(OC3CCOCC3)c(C#N)n2)nc2[nH]c(C(F)F)nc12` [I-623, 6-((2-(difluoromethyl)-7-((2-(methylsulfonyl)phenyl)amino)-3H-imidazo[4,5-b]pyridin-5-yl)amino)-3-((tetrahydro-2H-pyran-4-yl)oxy)picolinonitrile] is < 0.1 nM.
As for `Cc1nc2c(Nc3ccccc3S(C)(=O)=O)cc(Nc3ccc(OC4CCOCC4)c(C#N)n3)nc2[nH]1` [I-624, 6-((2-methyl-7-((2-(methylsulfonyl)phenyl)amino)-3H-imidazo[4,5-b]pyridin-5-yl)amino)-3-((tetrahydro-2H-pyran-4-yl)oxy)picolinonitrile], the figure is < 0.1 nM; as for `CS(=O)(=O)c1cc(F)ccc1Nc1cc(Nc2ccc(OC3CCOCC3)c(C#N)n2)nc2[nH]c(C(F)F)nc12` [I-625, 6-((2-(difluoromethyl)-7-((4-fluoro-2-(methylsulfonyl)phenyl)amino)-3H-imidazo[4,5-b]pyridin-5-yl)amino)-3-((tetrahydro-2H-pyran-4-yl)oxy)picolinonitrile], 0.1 to 0.5 nM.
Consider `Cc1nc2c(Nc3ccc(F)cc3S(C)(=O)=O)cc(Nc3ccc(OC4CCOCC4)c(C#N)n3)nc2[nH]1` [I-626, 6-((7-((4-fluoro-2-(methylsulfonyl)phenyl)amino)-2-methyl-3H-imidazo[4,5-b]pyridin-5-yl)amino)-3-((tetrahydro-2H-pyran-4-yl)oxy)picolinonitrile], for which the dissociation constant Kd was < 0.1 nM.
As for `COc1c(Nc2cc(Nc3cccc(C(F)(F)F)n3)nc3[nH]c(C)nc23)cccc1-c1ncnn1C` [I-627, N7-(2-methoxy-3-(1-methyl-1H-1,2,4-triazol-5-yl)phenyl)-2-methyl-N5-(6-(trifluoromethyl)pyridin-2-yl)-3H-imidazo[4,5-b]pyridine-5,7-diamine], the figure is 1 to 10 nM.
For the molecule `COc1c(Nc2cc(Nc3ccc4c(n3)C(F)(F)CC4)nc3[nH]c(C)nc23)cccc1-c1ncnn1C` [I-628, N5-(7,7-difluoro-6,7-dihydro-5H-cyclopenta[b]pyridin-2-yl)-N7-(2-methoxy-3-(1-methyl-1H-1,2,4-triazol-5-yl)phenyl)-2-methyl-3H-imidazo[4,5-b]pyridine-5,7-diamine], the Kd lay within 0.5 to 1 nM.
The figure for `COc1c(Nc2cc(Nc3ccc4c(n3)C(F)(F)CC4)nc3[nH]c(C)nc23)cccc1-c1cnn(C)n1` [I-629, N5-(7,7-difluoro-6,7-dihydro-5H-cyclopenta[b]pyridin-2-yl)-N7-(2-methoxy-3-(2-methyl-2H-1,2,3-triazol-4-yl)phenyl)-2-methyl-3H-imidazo[4,5-b]pyridine-5,7-diamine] is 0.5 to 1 nM.
As for `C#Cc1cccc(Nc2cc(Nc3ccc(F)cc3S(C)(=O)=O)c3nc(C)[nH]c3n2)n1` [I-630, N5-(6-ethynylpyridin-2-yl)-N7-(4-fluoro-2-(methylsulfonyl)phenyl)-2-methyl-3H-imidazo[4,5-b]pyridine-5,7-diamine], the figure is < 0.1 nM; as for `CN=S(C)(=O)c1cc(-c2cnn(C)c2C)ccc1Nc1cc(NC(=O)C2CC2)nc2[nH]c(C(F)F)nc12` (stereo not drawn) [I-631, N-(2-(difluoromethyl)-7-((4-(1,5-dimethyl-1H-pyrazol-4-yl)-2-(N,S-dimethylsulfonimidoyl)phenyl)amino)-3H-imidazo[4,5-b]pyridin-5-yl)cyclopropanecarboxamide], < 0.1 nM; as for `CN=S(C)(=O)c1cc(-c2ccn(C)n2)ccc1Nc1cc(NC(=O)C2CC2)nc2[nH]c(C(F)F)nc12` (stereo not drawn) [I-632], 0.1 to 0.5 nM.
`CS(=O)(=O)c1cc(F)ccc1Nc1cc(Nc2cc3c(nn2)CCC3)nc2[nH]c(C(F)F)nc12` [I-633] had a Kd of 0.1 to 0.5 nM.
The figure for `CN=S(C)(=O)c1cc(-c2nc(COC)c(C)s2)ccc1Nc1cc(NC(=O)C2CC2)nc2[nH]c(C(F)F)nc12` (stereo not drawn) [I-634] is 0.1 to 0.5 nM; for `COCc1ccc(Nc2cc(Nc3ccc(F)cc3S(C)(=O)=O)c3nc(C(F)F)[nH]c3n2)nn1` [I-635] it is 0.1 to 0.5 nM.
